Results from patent publication US11066443B2 (Hoffmann-La Roche Inc., priority 2017, dated 2021).
Values after ≈ are worked out from the molar mass of the structure shown.

Tests used:
[1] = tested on: P. aeruginosa ATCC27853; assay: Antimicrobial susceptibility testing: microbroth minimum inhibitory concentration (MIC) determination; format: cell-based; settings: Pseudomonas aeruginosa, CLSI microbroth dilution in CAMHB, read after 20 hours, lowest concentration inhibiting >=80% of growth
Protocol: The in vitro antimicrobial activity of the compounds was determined through microbroth minimum inhibitory concentration (MIC) methodology performed according to the Clinical and Laboratory Standard Institute guidelines (CLSI—M07-A9 Jan. 2012. Methods for Dilution Antimicrobial Susceptibility Tests for Bacteria That Grow Aerobically; Approved Standard—Ninth Edition, Clinical and Laboratory Standards Institue, Wayne/PA, US and the CLSI—M100-S24 Jan. 2014. Performance Standards for Antimicrobial Susceptibility Testing; Approved Standard—Fourth Informational Supplement, Clinical and Laboratory Standards Institue, Wayne/PA, US).
The compound stock solution was freshly prepared at 10× the required top concentration for the MIC determination, i.e. at 1280 mg/L, by reconstitution of the dry compound in 50:50 water:DMSO.
Polystyrene non-treated 96 wells microtiter plates were used for preparing panel containing compound serial twofold diluted at two times the final testing concentration (e.g. range from 64 to 0.06 μg/ml) in cation adjusted Mueller Hinton broth medium (CAMHB).
Inoculum was prepared by the “direct colony suspension method”. Colonies of P. aeruginosa ATCC27853 or clinical isolates were suspended in saline solution and adjusted to 0.5 McFarland, diluted 100 times in CAMHB broth and 50 μl added to each well (final concentration of cells ˜5×10^(5) CFU/ml and Final volume/well of 100 μl). Microtiter plates were sealed and incubated at 35±2° C.
MICs values were read after 20 hours of incubation and recorded as the lowest concentration of the antimicrobial that inhibits more or equal to 80% of growth of the organism as detected by the unaided eye and using a microtiter plate optical density reader (OD 600 nm).
Table 1 provides the minimum inhibitory concentration (MIC) in microgram per milliliter of the compounds of present invention obtained against the P. aeruginosa ATCC27853 (Table 1).

[2] = tested on: P. aeruginosa NCTC11454; assay: Antimicrobial susceptibility testing: 50% growth inhibitory concentration (IC50) determination; format: cell-based; settings: Pseudomonas aeruginosa, Iso-Sensitest broth, OD 600 nm every 20 minutes over 16h, growth inhibition during logarithmic growth
Summary of the method: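 Twofold dilutions (e.g. 50–0.097 μM final) in Iso-Sensitest broth were inoculated with P. aeruginosa NCTC11454 at ~5×10^5 CFU/mL and incubated at 35±2 °C. OD600 was read every 20 min over 16 h. IC50 was derived from growth inhibition in the logarithmic phase.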

Row | SMILES | MIC [1] [µg/mL] | IC50 [2] [µM]
1 | CN1C(=O)[C@H](CCCCN)NC(=O)[C@H](CCCN)NCc2ccccc2Sc2c(cc(-c3ccccc3)cc2C(F)(F)F)CNC(=O)[C@@H]1Cc1c[nH]c2ccccc12 [Example 28, (12S,15S,18S)-15-(4-Amino-butyl)-18-(3-amino-propyl)-12-(1H-indol-3-ylmethyl)-13-methyl-6-phenyl-4-trifluoromethyl-2-thia-10,13,16,19-tetraaza-tricyclo[19.4.0.0*3,8*]pentacosa-1(25),3,5,7,21,23-hexaene-11,14,17-trione] | 8 (≈ 9.83 µM) | 8.8
2 | CN1C(=O)[C@H](CCCCN)NC(=O)[C@H](CCCN)NCc2ccccc2Sc2c(Cl)cc(-c3cn(C)cn3)cc2CNC(=O)[C@@H]1Cc1c[nH]c2ccccc12 [Example 37, (12S,15S,18S)-15-(4-Amino-butyl)-18-(3-amino-propyl)-4-chloro-12-(1H-indol-3-ylmethyl)-13-methyl-6-(1-methyl-1H-imidazol-4-yl)-2-thia-10,13,16,19-tetraaza-tricyclo[19.4.0.0*3,8*]pentacosa-1(25),3,5,7,21,23-hexaene-11,14,17-trione] | 32 (≈ 40.8 µM) | 95.7
